The values below come from patent US20240109917A1 (ACTELION PHARMACEUTICALS LTD, priority 2020, published 2024).

Like-named read-outs stand apart in the source and are kept apart here.

For test [1], the target named is His6-TEV-PDGFRβ (557-1016) (Homo sapiens (Human), UniProt P09619). Description: PDGFRβ HTRF Assay. Type of test: biochemical. The following applies: read-out: PDGFR HTRF IC50. A digest of the protocol:
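Human PDGFRβ (557-1016) pre-incubated with compound for 30 min at RT in pH 7.5 HEPES/MgCl2/EGTA/Brij-35/DTT buffer. Reaction started with ATP and TK-biotin peptide, run 3 h at RT, then quenched with EDTA-containing Eu-cryptate antibody/streptavidin-XL665. HTRF 665/620 nm ratio read after 60 min; percent inhibition relative to DMSO and 10 μM imatinib controls.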

Test [2] concerns the target Tb-labeled inactive PDGFRβ (Homo sapiens (Human), UniProt P09619). Description: PDGFRβ LanthaScreen Assay. The format is binding. Particulars: read-out: PDGFR Lantha IC50.
The next test deals with PDGFRβ (Rattus norvegicus (Rat), UniProt Q05030). Description: PDGFRβ Cellular Assay (PDGFRb P-Y751 HTRF in A10 cells stimulated with PDGF-BB). The format is cell-based. Put shortly: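 Rat A10 cells, plated overnight, were treated with compound for 3 hours, then stimulated with PDGF-BB (working stock 100 ng/mL in 10% FBS medium). After lysis, PDGFRβ P-Y751 was detected by HTRF.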
PDGFRβ, sequence (Q05030 32-1097): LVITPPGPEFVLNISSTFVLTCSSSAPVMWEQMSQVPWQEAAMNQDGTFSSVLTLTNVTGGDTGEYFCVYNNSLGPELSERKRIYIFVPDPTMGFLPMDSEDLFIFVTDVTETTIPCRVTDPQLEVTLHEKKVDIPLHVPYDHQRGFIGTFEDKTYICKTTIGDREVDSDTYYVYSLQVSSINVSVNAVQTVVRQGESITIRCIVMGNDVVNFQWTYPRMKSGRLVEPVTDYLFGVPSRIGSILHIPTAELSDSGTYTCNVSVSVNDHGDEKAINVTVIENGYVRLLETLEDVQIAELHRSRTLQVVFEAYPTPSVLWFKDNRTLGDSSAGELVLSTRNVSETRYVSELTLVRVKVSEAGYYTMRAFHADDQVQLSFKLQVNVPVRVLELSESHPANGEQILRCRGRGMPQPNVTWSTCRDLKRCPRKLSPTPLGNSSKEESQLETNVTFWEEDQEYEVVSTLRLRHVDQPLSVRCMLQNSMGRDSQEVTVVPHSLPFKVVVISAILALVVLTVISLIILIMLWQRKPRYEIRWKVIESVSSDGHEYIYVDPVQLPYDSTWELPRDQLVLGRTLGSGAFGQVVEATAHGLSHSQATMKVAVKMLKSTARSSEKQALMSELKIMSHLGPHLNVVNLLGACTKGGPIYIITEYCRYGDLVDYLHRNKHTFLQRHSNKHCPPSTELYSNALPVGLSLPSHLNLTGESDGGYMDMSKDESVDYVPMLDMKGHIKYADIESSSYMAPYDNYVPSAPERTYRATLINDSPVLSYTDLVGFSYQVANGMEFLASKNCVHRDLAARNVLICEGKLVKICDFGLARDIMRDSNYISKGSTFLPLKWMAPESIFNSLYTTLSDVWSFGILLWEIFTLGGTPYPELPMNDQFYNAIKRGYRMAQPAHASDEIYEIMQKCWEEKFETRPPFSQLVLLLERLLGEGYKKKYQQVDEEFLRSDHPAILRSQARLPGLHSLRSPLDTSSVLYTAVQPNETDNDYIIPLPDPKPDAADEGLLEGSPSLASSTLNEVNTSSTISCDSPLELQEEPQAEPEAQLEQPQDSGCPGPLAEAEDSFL

Tb-labeled inactive PDGFRβ, sequence (P09619 33-1106): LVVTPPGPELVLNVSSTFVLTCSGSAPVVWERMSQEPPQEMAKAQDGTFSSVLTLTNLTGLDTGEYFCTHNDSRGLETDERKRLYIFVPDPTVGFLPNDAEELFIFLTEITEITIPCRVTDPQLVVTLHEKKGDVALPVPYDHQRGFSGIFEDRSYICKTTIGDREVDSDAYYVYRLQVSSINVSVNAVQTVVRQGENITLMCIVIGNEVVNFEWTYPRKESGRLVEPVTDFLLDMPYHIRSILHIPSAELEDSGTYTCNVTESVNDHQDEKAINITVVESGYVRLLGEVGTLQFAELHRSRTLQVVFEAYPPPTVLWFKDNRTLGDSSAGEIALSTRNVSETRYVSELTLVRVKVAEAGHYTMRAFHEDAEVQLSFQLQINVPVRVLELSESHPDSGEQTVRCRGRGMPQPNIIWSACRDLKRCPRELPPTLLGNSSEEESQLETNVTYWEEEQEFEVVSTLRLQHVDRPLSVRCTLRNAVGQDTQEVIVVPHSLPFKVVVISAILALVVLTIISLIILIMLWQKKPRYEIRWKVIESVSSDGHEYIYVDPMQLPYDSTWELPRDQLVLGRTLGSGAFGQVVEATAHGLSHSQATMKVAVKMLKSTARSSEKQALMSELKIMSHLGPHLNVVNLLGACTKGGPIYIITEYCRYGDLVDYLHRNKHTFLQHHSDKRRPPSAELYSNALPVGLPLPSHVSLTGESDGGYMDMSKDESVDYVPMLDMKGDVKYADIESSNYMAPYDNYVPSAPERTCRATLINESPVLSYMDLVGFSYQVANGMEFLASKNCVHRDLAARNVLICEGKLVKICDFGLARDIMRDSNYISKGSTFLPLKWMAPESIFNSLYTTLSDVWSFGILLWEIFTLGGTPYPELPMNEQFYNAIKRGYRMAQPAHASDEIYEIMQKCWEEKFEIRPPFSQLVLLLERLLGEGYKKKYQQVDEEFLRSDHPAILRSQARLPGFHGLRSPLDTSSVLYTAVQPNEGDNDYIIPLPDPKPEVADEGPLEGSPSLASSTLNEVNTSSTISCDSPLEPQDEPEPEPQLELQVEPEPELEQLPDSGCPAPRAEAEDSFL
His6-TEV-PDGFRβ (557-1016), sequence (P09619 557-1016): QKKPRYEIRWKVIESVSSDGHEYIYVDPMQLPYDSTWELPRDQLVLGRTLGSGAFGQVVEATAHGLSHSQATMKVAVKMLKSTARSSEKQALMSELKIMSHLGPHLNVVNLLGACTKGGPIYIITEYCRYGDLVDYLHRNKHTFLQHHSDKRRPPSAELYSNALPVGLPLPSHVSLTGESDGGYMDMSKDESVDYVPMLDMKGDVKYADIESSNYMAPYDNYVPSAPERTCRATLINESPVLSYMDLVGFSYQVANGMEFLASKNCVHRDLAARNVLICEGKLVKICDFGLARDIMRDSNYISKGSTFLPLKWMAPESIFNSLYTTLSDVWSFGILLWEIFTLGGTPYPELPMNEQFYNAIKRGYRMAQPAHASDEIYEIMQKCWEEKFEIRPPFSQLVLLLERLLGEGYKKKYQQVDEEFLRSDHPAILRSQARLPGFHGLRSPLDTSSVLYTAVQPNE

Regarding `COc1ncccc1-c1cn2ncc(C(=O)Nc3cc(C(=O)NCCN4CCCC4)cnc3C)c2s1` [Example 229, 2-(2-Methoxypyridin-3-yl)-N-(2-methyl-5-((2-(pyrrolidin-1-yl)ethyl)carbamoyl)pyridin-3-yl)pyrazolo[5,1-b]thiazole-7-carboxamide], the results for the IC50 (in test [1]; in test [2]; on PDGFRβ (read-out: PDGFR Cellular IC50)) were 0.2 nM, 1.6 nM and 15.5 nM, respectively.

For `Cc1ncc(C(=O)N2CC2CNC(C)(C)C)cc1NC(=O)c1cnn2cc(-c3cccc4c3cnn4C)sc12` (stereo not drawn) [Example 239, N-(5-(2-((tert-butylamino)methyl)aziridine-1-carbonyl)-2-methylpyridin-3-yl)-2-(1-methyl-1H-indazol-4-yl)pyrazolo[5,1-b]thiazole-7-carboxamide], the IC50 is 5 nM in test [1], 78.7 nM in test [2] and 349 nM at PDGFRβ (read-out: PDGFR Cellular IC50).

With `Cc1ncc(NC(=O)CN2CCCC23CC3)cc1NC(=O)c1cnn2cc(-c3cnn(C)c3)sc12` [Example 16, N-(5-(2-(4-azaspiro[2.4]heptan-4-yl)acetamido)-2-methylpyridin-3-yl)-2-(1-methyl-1H-pyrazol-4-yl)pyrazolo[5,1-b]thiazole-7-carboxamide], the IC50 in test [1] stood at 0.5 nM; in test [2], 5.1 nM; on PDGFRβ (read-out: PDGFR Cellular IC50), 4.1 nM.

As for `Cc1ncc(NC(=O)OC2CN(C(C)(C)C)C2)cc1NC(=O)c1cnn2cc(-c3cnn(C)c3)sc12` [Example 252, 1-(tert-butyl)azetidin-3-yl (6-methyl-5-(2-(1-methyl-1H-pyrazol-4-yl)pyrazolo[5,1-b]thiazole-7-carboxamido)pyridin-3-yl)carbamate], the half-inhibitory concentration (IC50) in test [1] was 1.1 nM; in test [2], 53.2 nM; at PDGFRβ (read-out: PDGFR Cellular IC50), 79.7 nM.

Take `Cc1ncc(C(=O)NC2CN(C(C)(C)C)C2)cc1NC(=O)c1cnn2cc(-c3cnn(C)c3)sc12` [Example 237, N-(5-((1-(tert-butyl)azetidin-3-yl)carbamoyl)-2-methylpyridin-3-yl)-2-(1-methyl-1H-pyrazol-4-yl)pyrazolo[5,1-b]thiazole-7-carboxamide]: the values for the half-inhibitory concentration (IC50) (in test [1]; in test [2]; against PDGFRβ (PDGFR Cellular IC50)) were 1.4 nM, 57.2 nM and 619 nM, respectively.

For `Cc1ncc(NC(=O)OC[C@H]2CCCN2C)cc1NC(=O)c1cnn2cc(-c3cnn(C)c3)sc12` [Example 244, (R)-(1-methylpyrrolidin-2-yl)methyl (6-methyl-5-(2-(1-methyl-1H-pyrazol-4-yl)pyrazolo[5,1-b]thiazole-7-carboxamido)pyridin-3-yl)carbamate], the 50% inhibitory concentration (IC50) in test [1] came out at 0.5 nM; in test [2], 15.3 nM; at PDGFRβ (PDGFR Cellular IC50) it was 22.9 nM.

Regarding `Cc1ncc(C(=O)NCCN2CC3CCC2CC3)cc1NC(=O)c1cnn2cc(-c3cnn(C4CC4)c3)sc12` [Example 181, N-(5-((2-(2-azabicyclo[2.2.2]octan-2-yl)ethyl)carbamoyl)-2-methylpyridin-3-yl)-2-(1-cyclopropyl-1H-pyrazol-4-yl)pyrazolo[5,1-b]thiazole-7-carboxamide], the IC50 in test [1] was determined as 0.2 nM; in test [2], 2.3 nM; on PDGFRβ (read-out: PDGFR Cellular IC50) it was 16.1 nM.

`Cc1cc(C(=O)NCCN2CCCC(O)C2)sc1NC(=O)c1cnn2cc(-c3cnn(C)c3)sc12` (stereo not drawn) [Example 200, N-(5-((2-(3-hydroxypiperidin-1-yl)ethyl)carbamoyl)-3-methylthiophen-2-yl)-2-(1-methyl-1H-pyrazol-4-yl)pyrazolo[5,1-b]thiazole-7-carboxamide]: the IC50 in test [1] was 49 nM; in test [2], 2210 nM; at PDGFRβ (read-out: PDGFR Cellular IC50), greater than 3000 nM.

Consider `Cc1ncc(NC(=O)CCN2CCCC2(C)C)cc1NC(=O)c1cnn2cc(-c3ccn(C)n3)sc12` [Example 12, N-(5-(3-(2,2-dimethylpyrrolidin-1-yl)propanamido)-2-methyl-pyridin-3-yl)-2-(1-methyl-1H-pyrazol-3-yl)pyrazolo[5,1-b]thiazole-7-carboxamide], for which the 50% inhibitory concentration (IC50) in test [1] was determined as 0.3 nM; in test [2], 3.3 nM; at PDGFRβ (read-out: PDGFR Cellular IC50) it was 7.7 nM.

Consider `Cc1cc(C(=O)NCCN2CCC(O)CC2)sc1NC(=O)c1cnn2cc(-c3cnn(C)c3)sc12` [Example 191, N-(5-((2-(4-hydroxypiperidin-1-yl)ethyl)carbamoyl)-3-methylthiophen-2-yl)-2-(1-methyl-1H-pyrazol-4-yl)pyrazolo[5,1-b]thiazole-7-carboxamide], for which the results for the IC50 (in test [1]; in test [2]; at PDGFRβ (read-out: PDGFR Cellular IC50)) were 248 nM, greater than 3000 nM and greater than 3000 nM, respectively.

Turning to `Cc1ncc(C(=O)NCCN2CCCC2)cc1NC(=O)c1cnn2cc(-c3cnn(CC(O)CO)c3)sc12` (stereo not drawn) [Example 225, 2-(1-(2,3-Dihydroxypropyl)-1H-pyrazol-4-yl)-N-(2-methyl-5-((2-(pyrrolidin-1-yl)ethyl)carbamoyl)pyridin-3-yl)pyrazolo[5,1-b]thiazole-7-carboxamide], the IC50 in test [1] was 0.6 nM; in test [2], 12.2 nM; on PDGFRβ (read-out: PDGFR Cellular IC50), greater than 2000 nM.

As to `Cc1ncc(NC(=O)CN(C)C2CCOCC2)cc1NC(=O)c1cnn2cc(-c3cnn(C)c3)sc12` [Example 15, 2-(1-methyl-1H-pyrazol-4-yl)-N-(2-methyl-5-(2-(methyl(tetrahydro-2H-pyran-4-yl)amino)acetamido)pyridin-3-yl)pyrazolo[5,1-b]thiazole-7-carboxamide], the 50% inhibitory concentration (IC50) was 0.5 nM in test [1], 4.7 nM in test [2] and 15.7 nM at PDGFRβ (read-out: PDGFR Cellular IC50).

As for `Cc1ncc(NC(=O)CN2CCN(C)CC2)cc1NC(=O)c1cnn2cc(-c3cnn(C)c3)sc12` [Example 232, 2-(1-methyl-1H-pyrazol-4-yl)-N-(2-methyl-5-(2-(4-methylpiperazin-1-yl)acetamido)pyridin-3-yl)pyrazolo[5,1-b]thiazole-7-carboxamide], the concentration for half-maximal inhibition (IC50) in test [1] is 25.9 nM; in test [2], 751 nM; at PDGFRβ (read-out: PDGFR Cellular IC50), 1730 nM.

Regarding `Cc1ncc(NC(=O)CN2CCC(F)(F)CC2)cc1NC(=O)c1cnn2cc(-c3cnn(C)c3)sc12` [Example 14, N-(5-(2-(4,4-difluoropiperidin-1-yl)acetamido)-2-methylpyridin-3-yl)-2-(1-methyl-1H-pyrazol-4-yl)pyrazolo[5,1-b]thiazole-7-carboxamide], the IC50 came to 0.4 nM in test [1], 2.7 nM in test [2] and 4.4 nM at PDGFRβ (read-out: PDGFR Cellular IC50).

Take `Cc1ncc(NC(=O)OC[C@@H]2CCCN2C(C)C)cc1NC(=O)c1cnn2cc(-c3cnn(C)c3)sc12` [Example 245, (S)-(1-isopropylpyrrolidin-2-yl)methyl (6-methyl-5-(2-(1-methyl-1H-pyrazol-4-yl)pyrazolo[5,1-b]thiazole-7-carboxamido)pyridin-3-yl)carbamate]: the figures for the IC50 (in test [1]; in test [2]; on PDGFRβ (read-out: PDGFR Cellular IC50)) were 0.4 nM, 10.8 nM and 18.1 nM, respectively.

As for `Cc1ncc(C(=O)NCCN2CCCC2(C)C)cc1NC(=O)c1cnn2cc(-n3ncc4cccnc43)sc12` [Example 217, N-(5-((2-(2,2-dimethylpyrrolidin-1-yl)ethyl)carbamoyl)-2-methylpyridin-3-yl)-2-(1H-pyrazolo[3,4-b]pyridin-1-yl)pyrazolo[5,1-b]thiazole-7-carboxamide], the values for the IC50 (in test [1]; in test [2]; at PDGFRβ (read-out: PDGFR Cellular IC50)) were 0.4 nM, 2.5 nM and 8.9 nM, respectively.
